Some results are limits rather than exact numbers.

For the experiment, the target named is MAPKAPK2 (Homo sapiens, UniProt P49137). Briefly: MK2 Enzymatic Assay. The class given is biochemical. The settings on record: 0.5 nM MAPKAPK2, 3 μM ATP, 2 μM Ser/Thr4 peptide, 23° C., values given as concentration bins. How it is done: Briefly, 5 μL of 2× (4 μM) 100% phosphorylation peptide was delivered into the control wells of a 384-well assay plate. 5 μL of 2× (1 nM) MAPKAPK2 and 2× peptide (4 μM) mixture in assay buffer was dispensed to remaining columns of assay plate using Eppendorf electronic multiple channel pipette. The assay plate was incubated for 20 minutes. 5 μL of 2× ATP (6 μM) in assay buffer was dispensed to each well and then the assay plate was lightly centrifuged. The assay plate was incubated for an additional 120 minutes.
Chain of MAPKAPK2 (P49137 whole entry, species assumed): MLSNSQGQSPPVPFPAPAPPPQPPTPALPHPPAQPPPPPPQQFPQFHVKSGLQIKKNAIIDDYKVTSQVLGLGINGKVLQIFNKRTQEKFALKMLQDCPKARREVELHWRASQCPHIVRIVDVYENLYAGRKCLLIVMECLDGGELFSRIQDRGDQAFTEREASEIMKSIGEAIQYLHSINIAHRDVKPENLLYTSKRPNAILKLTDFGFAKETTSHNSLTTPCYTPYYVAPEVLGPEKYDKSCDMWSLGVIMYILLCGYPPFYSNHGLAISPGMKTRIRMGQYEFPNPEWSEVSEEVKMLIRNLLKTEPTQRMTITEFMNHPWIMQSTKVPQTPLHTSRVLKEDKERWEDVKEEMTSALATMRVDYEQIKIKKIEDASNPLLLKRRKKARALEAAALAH
5 μL of development reagent A was dispensed to all wells using Eppendorf electronic multiple channel pipette. After incubating the development reaction for 120 min, plates were read on a Perkin Elmer Envision instrument.
Percent phosphorylation was calculated using the following formula:
[formula] Where • C100%=Average Coumarin emission signal of the 100% Phos. Control • C0%=Average Coumarin emission signal of the 0% Phos. Control • F100%=Average Fluorescein emission signal of the 100% Phos. Control • F0%=Average Flurescein emission signal of the 0% Phos. Control
Regarding `OC1CCN(C[C@@H]2CCN(c3ccc4c(c3)Cn3cc(-c5ccc(F)cc5)cc3-c3nccn3-4)C2)CC1` [Compound 361, (S)-1-((1-(12-(4-fluorophenyl)-9H-benzo[e]imidazo[2,1-c]pyrrolo[1,2-a][1,4]diazepin-7-yl)pyrrolidin-3-yl)methyl)piperidin-4-ol], the IC50 was under 50 nM.
For the compound `N[C@@H]1CN(c2ccc3c(c2)Cn2cc(-c4ccc(F)cc4)cc2-c2ncnn2-3)C[C@H]1CO` (relative stereo) [Compound 503, (Trans-4-amino-1-(12-(4-fluorophenyl)-9H-benzo[e]pyrrolo[1,2-a][1,2,4]triazolo[5,1-c][1,4]diazepin-7-yl)pyrrolidin-3-yl)methanol], the 50% inhibitory concentration (IC50) fell in the range of 100 to 200 nM.
For `OC1CCN(C[C@H]2CCN(c3ccc4c(c3)Cn3cc(-c5ccccc5)cc3-c3nncn3-4)C2)CC1` [Compound 459, (R)-1-((1-(12-phenyl-9H-benzo[e]pyrrolo[1,2-a][1,2,4]triazolo[3,4-c][1,4]diazepin-7-yl)pyrrolidin-3-yl)methyl)piperidin-4-ol], the half-maximal inhibitory concentration (IC50) fell in the range of 100 to 200 nM.
Turning to `CN(C)C[C@H]1CN(c2ccc3c(c2)Cn2cc(-c4ccc(F)cc4)cc2-c2ncnn2-3)C[C@H]1O` [Compound 415, (3S,4S)-4-((dimethylamino)methyl)-1-(12-(4-fluorophenyl)-9H-benzo[e]pyrrolo[1,2-a][1,2,4]triazolo[5,1-c][1,4]diazepin-7-yl)pyrrolidin-3-ol], the concentration for half-maximal inhibition (IC50) lay within 100 to 200 nM.
The same measure for `C[C@H]1c2cc(N3C[C@@H](CN(C)C)[C@H](O)C3)ccc2-n2ccnc2-c2cc(-c3ccc(F)cc3)cn21` [Compound 509, (3S,4R)-4-((dimethylamino)methyl)-1-((S)-12-(4-fluorophenyl)-9-methyl-9H-benzo[e]imidazo[2,1-c]pyrrolo[1,2-a][1,4]diazepin-7-yl)pyrrolidin-3-ol]: under 50 nM.
Consider `CNC[C@H]1CN(c2ccc3c(c2)Cn2cc(-c4ccc(F)cc4)cc2-c2ncnn2-3)C[C@H]1F` (relative stereo) [Compound 501, 1-(cis-4-fluoro-1-(12-(4-fluorophenyl)-9H-benzo[e]pyrrolo[1,2-a][1,2,4]triazolo[5,1-c][1,4]diazepin-7-yl)pyrrolidin-3-yl)-N-methylmethanamine], for which the concentration for half-maximal inhibition (IC50) was under 50 nM.
In turn, `O=C(O)CN1CC2(CCN(c3ccc4c(c3)Cn3cc(-c5ccc(F)cc5)cc3-c3nccn3-4)C2)C1` [Compound 478, 2-(6-(12-(4-fluorophenyl)-9H-benzo[e]imidazo[2,1-c]pyrrolo[1,2-a][1,4]diazepin-7-yl)-2,6-diazaspiro[3.4]octan-2-yl)acetic acid] showed a half-maximal inhibitory concentration (IC50) of 100 to 200 nM.
The result for `CN(C)C[C@H]1CN(c2ccc3c(n2)Cn2cc(-c4ccc(F)cc4)cc2-c2nccn2-3)C[C@@H]1O` [Compound 435, (3R,4S)-4-((dimethylamino)methyl)-1-(12-(4-fluorophenyl)-9H-imidazo[2,1-c]pyrido[3,2-e]pyrrolo[1,2-a][1,4]diazepin-7-yl)pyrrolidin-3-ol] reads under 50 nM; that for `CN1CC2(CCN(c3ccc4c(n3)Cn3cc(-c5ccc(C#N)cc5)cc3-c3nccn3-4)C2)C1` [Compound 297, 4-(7-(2-methyl-2,6-diazaspiro[3.4]octan-6-yl)-9H-imidazo[2,1-c]pyrido[3,2-e]pyrrolo[1,2-a] [1,4]diazepin-12-yl)benzonitrile], 50 to 100 nM; that for `Cc1nnc2n1-c1ccc(N3CC[C@H](N)C3)cc1Cn1cc(-c3ccc(C#N)cc3)cc1-2` [Compound 230, 4-(7-((S)-3-aminopyrrolidin-1-yl)-3-methyl-9H-benzo[e]pyrrolo[1,2-a][1,2,4]triazolo[3,4-c][1,4]diazepin-12-yl)benzonitrile], 50 to 100 nM.
`CN(C)C[C@@H]1CN(c2ccc3c(n2)Cn2cc(-c4ccc(F)cc4)cc2-c2nccn2-3)C[C@@H]1O` [Compound 430, (3R,4R)-4-((dimethylamino)methyl)-1-(12-(4-fluorophenyl)-9H-imidazo[2,1-c]pyrido[3,2-e]pyrrolo[1,2-a][1,4]diazepin-7-yl)pyrrolidin-3-ol] gave an IC50 of under 50 nM.
As to `CN(C)C[C@H]1CN(c2ccc3c(c2)Cn2cc(-c4ccc(C#N)cc4)cc2-c2nccn2-3)C[C@@H]1O` [Compound 137, 4-(7-((3S,4R)-3-((dimethylamino)methyl)-4-hydroxypyrrolidin-1-yl)-9H-benzo[e]imidazo[2,1-c]pyrrolo[1,2-a][1,4]diazepin-12-yl)benzonitrile], the half-inhibitory concentration (IC50) was under 50 nM.
In the case of `COCc1cnc2n1-c1ccc(N3CC[C@@H](N(C)C)C3)cc1Cn1cc(-c3ccc(C#N)cc3)cc1-2` [Compound 278, 4-(7-((R)-3-(dimethylamino)pyrrolidin-1-yl)-3-(methoxymethyl)-9H-benzo[e]imidazo[2,1-c]pyrrolo[1,2-a][1,4]diazepin-12-yl)benzonitrile], the IC50 is under 50 nM.
In turn, `CNC[C@@H]1CN(c2ccc3c(c2)Cn2cc(-c4ccc(F)cc4)cc2-c2nccn2-3)C[C@@H]1O` [Compound 483, (3R,4R)-1-(12-(4-fluorophenyl)-9H-benzo[e]imidazo[2,1-c]pyrrolo[1,2-a][1,4]diazepin-7-yl)-4-((methylamino)methyl)pyrrolidin-3-ol] showed a 50% inhibitory concentration (IC50) of under 50 nM.
Compound `CNC[C@H]1CN(c2ccc3c(c2)Cn2cc(-c4ccc(C#N)cc4)cc2-c2nncn2-3)C[C@@H]1O` (relative stereo) [Compound 72, 4-(7-(trans-3-hydroxy-4-((methylamino)methyl)pyrrolidin-1-yl)-9H-benzo[e]pyrrolo[1,2-a][1,2,4]triazolo[3,4-c][1,4]diazepin-12-yl)benzonitrile] had a 50% inhibitory concentration (IC50) of under 50 nM.
In turn, `CN(C)[C@H]1CN(c2ccc3c(n2)Cn2cc(-c4ccc(C#N)cc4)cc2-c2nccn2-3)C[C@@H]1O` [Compound 301, 4-(7-((3S,4S)-3-(dimethylamino)-4-hydroxypyrrolidin-1-yl)-9H-imidazo[2,1-c]pyrido[3,2-e]pyrrolo[1,2-a][1,4]diazepin-12-yl)benzonitrile] returned an IC50 of 100 to 200 nM.
Compound `CN1CC2(CCN(c3cc4c(cn3)-n3ccnc3-c3cc(-c5ccc(C#N)cc5)cn3C4)C2)C1` [Compound 322, 4-(7-(2-methyl-2,6-diazaspiro[3.4]octan-6-yl)-9H-imidazo[2,1-c]pyrido[3,4-e]pyrrolo[1,2-a] [1,4]diazepin-12-yl)benzonitrile] displayed an IC50 of 100 to 200 nM.
In turn, `C[C@@H](CO)NC[C@@H]1CCN(c2ccc3c(c2)Cn2cc(-c4ccc(C#N)cc4)cc2-c2nncn2-3)C1` [Compound 86, 4-(7-((S)-3-((((S)-1-hydroxypropan-2-yl)amino)methyl)pyrrolidin-1-yl)-9H-benzo[e]pyrrolo[1,2-a][1,2,4]triazolo[3,4-c][1,4]diazepin-12-yl)benzonitrile] gave an IC50 of under 50 nM.
The result for `Cc1nnc2n1-c1ccc(N3CC[C@H](CN(C)C)C3)cc1Cn1cc(-c3ccc(C#N)cc3)cc1-2` [Compound 229, 4-(7-((R)-3-((dimethylamino)methyl)pyrrolidin-1-yl)-3-methyl-9H-benzo[e]pyrrolo[1,2-a] [1,2,4]triazolo[3,4-c][1,4]diazepin-12-yl)benzonitrile] reads 50 to 100 nM; that for `CN(C)C[C@@H]1CCN(c2cc3c(cn2)-n2cnnc2-c2cc(-c4ccc(F)cc4)cn2C3)C1` [Compound 443, (S)-1-(1-(12-(4-fluorophenyl)-9H-pyrido[3,4-e]pyrrolo[1,2-a][1,2,4]triazolo[3,4-c][1,4]diazepin-7-yl)pyrrolidin-3-yl)-N,N-dimethylmethanamine], 100 to 200 nM.
The result for `CN(C)C[C@@H]1CCN(c2ccc3c(c2)Cn2cc(-c4ccc(C#N)cc4)cc2-c2nnnn2-3)C1` [Compound 241, (S)-4-(7-(3-((dimethylamino)methyl)pyrrolidin-1-yl)-9H-benzo[e]pyrrolo[1,2-a]tetrazolo[5,1-c][1,4]diazepin-12-yl)benzonitrile] reads under 50 nM.
Turning to `CN(C)C[C@@H]1CCN(c2ccc3c(c2)Cn2cc(-c4ccc(F)cc4)cc2-c2ncnn2-3)C1` [Compound 413, (S)-1-(1-(12-(4-fluorophenyl)-9H-benzo[e]pyrrolo[1,2-a][1,2,4]triazolo[5,1-c][1,4]diazepin-7-yl)pyrrolidin-3-yl)-N,N-dimethylmethanamine], the concentration for half-maximal inhibition (IC50) is under 50 nM.
The same measure for `CN(C)[C@H]1CCN(c2ccc3c(c2)Cn2cc(-c4ccc(F)cc4)cc2-c2nnnn2-3)C1` [Compound 407, (S)-1-(12-(4-fluorophenyl)-9H-benzo[e]pyrrolo[1,2-a]tetrazolo[5,1-c][1,4]diazepin-7-yl)-N,N-dimethylpyrrolidin-3-amine]: 50 to 100 nM; for `CNC[C@@H]1CN(c2ccc3c(c2)Cn2cc(-c4ccc(F)cc4)cc2-c2nccn2-3)C[C@@H]1F` [Compound 474, 1-((3R,4R)-4-fluoro-1-(12-(4-fluorophenyl)-9H-benzo[e]imidazo[2,1-c]pyrrolo[1,2-a][1,4]diazepin-7-yl)pyrrolidin-3-yl)-N-methylmethanamine]: under 50 nM; for `N#Cc1ccc(-c2cc3n(c2)Cc2cc(N4CCNCC4)ccc2-n2cnnc2-3)cc1` [Compound 1, 4-(7-(piperazin-1-yl)-9H-benzo[e]pyrrolo[1,2-a][1,2,4]triazolo[3,4-c][1,4]diazepin-12-yl)benzonitrile]: 100 to 200 nM.
`CN(C)[C@@H]1CCN(c2ccc3c(c2)Cn2cc(-c4ccc(F)cc4)cc2-c2ncnn2-3)C1` [Compound 426, (R)-1-(12-(4-fluorophenyl)-9H-benzo[e]pyrrolo[1,2-a][1,2,4]triazolo[5,1-c][1,4]diazepin-7-yl)-N,N-dimethylpyrrolidin-3-amine] registered an IC50 of 50 to 100 nM.

For orientation: IC50 means the concentration that inhibits the measured activity by half. A low value points to higher potency.

The record behind these values is patent US10562909B2, “Fused quadracyclic compounds, compositions and uses thereof” (Tabomedex Biosciences, LLC, priority 2016, dated 2020).
